Counter-ions that a name gives are not always drawn. Starred links: 1 amine or outer side, 2 acyl side, 3 side chain; linkers in the order of their positions; H or OH if unused. Positions of bridges follow the written chain, without caps; N, C: chain ends. Non-standard residues stand in square brackets, D forms with d. Residues, ends and D or L forms follow the SMILES beside them. Chains are numbered I, II in the order given. Actinocin(9to1) = Cc1c2oc3c(C)ccc(C(=O)[*:1])c3nc-2c(C(=O)[*:2])c(N)c1=O; NMeV = CN[C@H](C(=O)O)C(C)C; Sar = CNCC(=O)O
What was measured:
eosinophils = experiment: In vivo ovalbumin (OVA) mouse model, BALF eosinophils; details: i.n., 30 mg/kg
Experimental: (§1) This model is designed to determine the ability of a test article to modulate an antigen-induced pulmonary inflammatory cell accumulation in sensitized Balb/c mice from Charles River Laboratories. The mice are given a two week time period from arrival date prior to sensitizations.
(§2) On days 0, 7, 14, each animal is injected intraperitoneal (i.p.) with a 0.2 ml Ovalbumin Hydragel solution. Each animal receives 10 μg of Ovalbumin in 0.2 mL of Hydragel, aluminum hydroxide adsorptive gel containing 2% aluminum oxide. On Day 21, the animals are dosed with test compounds 30-60 minutes prior to 5% Ovalbumin aerosolized challenge. On day 22, BALF samples are collected from one group of animals and used for cytokine analysis. On day 24, BALF is obtained from a second group of animals and used for differential cell counts.
(§3) Test System: Female Babl/cJ mice (Jackson Laboratories), approximately 6-9 weeks old, each weighing approximately 20 to 25 grams, are divided into ten animals per group.
(§4) Sensitization Regimen: Mice are sensitized by an intraperitoneal injection of 10 μg ovalbumin (OVA) mixed in 4 mg aluminum hydroxide Al(OH)3 gel suspension in 0.2 ml sterile saline on Days 0, 7 and 14. This suspension is prepared one hour before intraperitoneal injection into each mouse. The animals are ready for OVA challenge on Day 21.
(§5) Antigen Challenge: Animals are exposed to aerosolized OVA on day 21 (5% w/v in sterile saline) for 20 minutes. The aerosol is generated by a PARI-Master nebulizer, the outlet of which is connected to a small Plexiglas® chamber containing the animals. Bronchoalveolar lavage is performed on Day 22.
Method of Study Performance: On day 24, 72 hours following aerosol OVA exposure, a separate group of animals are anesthetized with urethane (0.15-0.2 gm/kg) and the trachea is exposed and cannulated. Lungs are lavaged with 2×0.5 ml Hank's balanced salt solution without Ca^2+ and Mg^2+ (HBSS; Gibco, Grand Island, N.Y.) containing 0.1% EDTA. Lavage fluid is recovered after 30 sec by gentle aspiration and pooled for each animal. Samples are centrifuged at 2000 rpm for 15 minutes at 5° C. After centrifugation, individual supernatants are stored frozen at −80° C. The resulting pellet is resuspended in 0.5 ml of HBSS containing 0.1% EDTA. Total cells and eosinophils are determined using a Technicon Hl and cytoslides, respectively. […]
(§6) FIG. 1 summarizes results from one representative experiment (out of three) in which in addition to BALF cytokines, lung eosinophilia is also determined. […] After the OVA challenge for 24 hours, the mice underwent bronchoalveolar lavage and IL-4 and IL-13 levels in the BALF are determined by ELISA. […]

IL-4 = experiment: In vivo ovalbumin (OVA) mouse model, BALF IL-4; details: i.n.
Experimental: as §1, §2, §3, §4, §5
Method of Study Performance: On day 24, 72 hours following aerosol OVA exposure, a separate group of animals are anesthetized with urethane (0.15-0.2 gm/kg) and the trachea is exposed and cannulated. Lungs are lavaged with 2×0.5 ml Hank's balanced salt solution without Ca^2+ and Mg^2+ (HBSS; Gibco, Grand Island, N.Y.) containing 0.1% EDTA. Lavage fluid is recovered after 30 sec by gentle aspiration and pooled for each animal. Samples are centrifuged at 2000 rpm for 15 minutes at 5° C. After centrifugation, individual supernatants are stored frozen at −80° C. The resulting pellet is resuspended in 0.5 ml of HBSS containing 0.1% EDTA. Total cells and eosinophils are determined using a Technicon Hl and cytoslides, respectively.
Administration of the Test/Control Article: The test article and vehicle dosing preparations are administered once to each anesthetized mouse intranasally using a 200 μl pipette at 30-60 minutes prior to OVA challenge. Each animal receives 50 μl (25 μl/nostril) at each time point. Method of Euthanasia: Urethane overdose at in-life completion.
Statistical Analysis: Total cell and eosinophil number from various treatment groups is compared using an ANOVA followed by a multiple comparison test.
Compounds administered 30 minutes before aerosol ovalbumin challenge in ova sensitized mice. BALF harvested 24 hours after aerosol challenge. N=6/group.
as §6, with “determined. Mice (12 animals per group) are sensitized with 0.2 ml of an AlOH3 hydrogel suspension (2% AlOH3) containing 50 μg/ml ovalbumin on days 0, 7 and 14.” for “determined.”

Swiss 3T3 fibroblasts = experiment: In vitro cytotoxicity assay on contact inhibited 3T3 fibroblasts (MTS); assay type: cell-based; details: non-dividing 3T3 cells
Experimental: Other toxicity assays may be used.
Any compound killing 3T3 fibroblast cells was omitted from further studies.
Contact inhibited Swiss 3T3 fibroblasts are purchased from ATCC.
All compound dilutions are assayed in triplicate. […] Cells are returned to the incubator for 2 days.
Media is added to blank wells for background calculations.
Note that starting concentration of CsA was 1 μM.

Row | SMILES | Eos % ctl At 72 hours (eosinophils) [% ctl] | IL-4% ctl At 24 hours (IL-4; 30 mg/kg) [% ctl] | melting point | other results
1 | CCOC(=O)c1c(Nc2ccncc2)c2ccccc2n1C [Example 24A (maleate salt), 1-Methyl-3-(4-pyridinylamino)-1H-indole-2-carboxylic ethyl ester] | 8 | 3 | – | –
2 | O=C(O)c1[nH]c2ccccc2c1Nc1ccncc1 [Example 28-ZD, 3-(4-Pyridinylamino)-1H-indole-2-carboxylic acid] | 37.4 | 49.6 | – | –
3 | O=C(O)c1[nH]c2ccccc2c1Nc1ccncc1 [28 (maleate salt), 3-(4-Pyridinylamino)-1H-indole-2-carboxylic acid] | – | – | – | IL-4% ctl At 24 hours (IL-4; 12 mg/kg): 50 % ctl
4 | CCOC(=O)c1[nH]c2cc(Cl)cc(Cl)c2c1NS(=O)(=O)c1ccccc1 [Example 90, 3-((Phenylsulfonyl)amino)-4,6-dichloro-1H-indole-2-carboxylic acid ethyl ester] | 71 | 37 | – | –
5 | CCOC(=O)c1[nH]c2ccccc2c1Nc1ccncc1 [Example 11, 3-(4-pyridinylamino)-1H-indole-2-carboxylic acid, ethyl ester] | – | – | 248 to 250 °C | –
6 | O=C(O)c1[nH]c2ccccc2c1Nc1ccncc1 [Example 28-EF, 3-(4-Pyridinylamino)-1H-indole-2-carboxylic acid] | 42 | 27 | – | –
7 | Cc1c2oc3c(C)ccc(C(=O)N[C@@H]4C(=O)N[C@H](C(C)C)C(=O)N5CCC[C@H]5C(=O)N(C)CC(=O)N(C)[C@@H](C(C)C)C(=O)O[C@@H]4C)c3nc-2c(C(=O)N[C@@H]2C(=O)N[C@H](C(C)C)C(=O)N3CCC[C@H]3C(=O)N(C)CC(=O)N(C)[C@@H](C(C)C)C(=O)O[C@@H]2C)c(N)c1=O [Actinomycin D, reference compound] (I: T[dV]P[Sar][NMeV] / II: T[dV]P[Sar][NMeV]; ester I:1-I:C, II:1-II:C; linker I:N-II:N via Actinocin(9to1)) | – | – | – | toxic effects on quiescent 3T3 cells (in words) (Swiss 3T3 fibroblasts): the only compound which effected the viability
8 | CCOC(=O)c1[nH]c2cc(Cl)ccc2c1Nc1ccncc1 [Example 13, 6-chloro-3-(4-pyridinylamino)-1H-indole-2-carboxylic acid, ethyl ester] | – | – | 258 to 261 °C (dec.) | –
9 | CCOC(=O)c1[nH]c2cc(-c3ccccc3)ccc2c1Nc1ccncc1 [Example 18, 6-phenyl-3-(4-pyridinylamino)-1H-indole-2-carboxylic acid, ethyl ester] | – | – | 241 to 243 °C | –
